Laboratory results reported in patent US20220064167A1, “IMIDAZO-PYRAZOLE CARBOXAMIDE DERIVATIVES AS ANTICANCER AGENTS AND THE SYNTHESIS THEREOF” (AVIDIN KFT., priority 2018, published 2022).

Legend:
[1] = test system: human breast adenocarcinoma cell line, MCF-7; experiment: resazurin viability assay, 72 h (Table 1); type: cell-based; settings: MCF7, 72h incubation, 156 nM-100 μM
Text: (§1) In our experiments three different cell lines were used. Cells were purchased from the American Type Culture Collection (ATCC, Manassas, Va., USA). The human breast adenocarcinoma cell line, MCF-7 cells were maintained in Dulbecco's Modified Eagle Medium/Nutrient Mixture F-12 (DMEM/F12) 10% fetal calf serum (FCS, Gibco) and mouse mammary carcinoma 4T1 and human promyelocytic leukemia, HL-60 cells were maintained in Roswell Park Memorial Institute 1640 medium (RPMI-1640) 10% FCS. Media were supplemented with 2 mM GlutaMAX, and 100 U/mL penicillin, 100 μg/mL streptomycin (Life Technologies, Carlsbad, Calif., USA). Cell cultures were maintained at 37° C. in a humidified incubator in an atmosphere of 5% CO2 (Sanyo, Japan).
(§2) For viability assays cells were seeded in 96 well plates (MCF7 and 4T1: 6000, HL60: 120.000 cells/well) and incubated overnight. Compounds were dissolved in dimethyl sulfoxide (DMSO). Cells were treated with an increasing concentration of compounds having the general formula (I.) (156 nM-100 μM). Cell viability was determined after 72h incubation. Resazurin reagent (Sigma-Aldrich) was dissolved in PBS (pH 7.4) at 0.15 mg/ml concentration, sterile filtered (0.22 μm, Merck Millipore) and aliquoted at −20° C. Resazurin reagent (Sigma-Aldrich) was added at a final concentration of 25 μg/ml. After 2 hours incubation at 37° C. 5% CO2 fluorescence (530 nm excitation/580 nm emission) was recorded on a multimode microplate reader (Cytofluor4000, PerSeptive Biosytems). Viability was calculated with relation to untreated control cells and blank wells containing media without cells. IC50 values (50% inhibiting concentration) were calculated by GraphPad Prism® 5 (La Jolla, Calif., USA).

[2] = test system: human promyelocytic leukemia, HL-60 cells; experiment: resazurin viability assay, 72 h (Table 1); type: cell-based; settings: 72h incubation, 156 nM-100 μM
Text: as §1, §2

[3] = test system: mouse mammary carcinoma 4T1; experiment: resazurin viability assay, 72 h (Table 1); type: cell-based; settings: 72h incubation, 156 nM-100 μM
Text: as §1, §2

HL-60 cells = experiment: resazurin viability assay, Example 103 (FIG. 1); type: cell-based; settings: Homo sapiens, 72 h incubation, 20.000 cells/well, read-out: half-inhibitory concentration (IC50) on viability of HL-60 cells
Procedure: The human primary fibroblasts (6000 cells/well) and Hl60 cells (20.000 cells/well) were seeded into 96-well plates (Corning Life Sciences) in media. Fibroblasts were cultured overnight before treatment. Effects of compounds described in Example 22, 60 and 83 were examined in concentrations of 1 μM, 250 nM, 62.5 nM, 15.6 nM, 3.9 nM and 0.9 nM in 100 μl after 72 h incubation. Resazurin reagent was prepared and used as described in Example 1.
(§3) Viability was calculated with relation to untreated control cells and blank wells containing media without cells. IC50 values (50% inhibiting concentration) were calculated by GraphPad Prism® 5.

[4] = test system: human primary fibroblasts; experiment: resazurin viability assay on primary fibroblasts, Example 103 (FIG. 1); type: cell-based; settings: 72 h incubation, applied concentration range 1.6 nM-5 μM
Text: To obtain primary human fibroblasts healthy volunteers (age 18-60 years) were enrolled into the study. The punch biopsies were taken from healthy subjects from the breast area undergoing plastic surgery. Primary fibroblasts were obtained from the skin by enzymatic digestion according to a standard protocol. Skin specimens were first washed in Salsol A solution (Human Rt, Gödöllö, Hungary) supplemented with 2% antibiotic/antimycotic solution (Sigma-Aldrich). Skin samples were then cut into narrow strips and incubated in Dispase solution (Roche Diagnostics, Mannheim, Germany) overnight at 4° C. The epidermis was subsequently separated from the dermis. Fibroblasts were obtained by incubating the dermis in Digestion Mix solution (Collagenase, Hyaluronidase and Deoxyribonuclease) for 2h at 37° C. Cell suspensions were filtered through a 100 μm nylon mesh (BD Falcon, San Jose, Calif., USA) and cells were pelleted by centrifugation. Fibroblasts were grown in low glucose DMEM medium containing 5% FBS, 1% antibiotic/antimycotic (PAA, Pasching, Austria) and 1% L-glutamine solution (PAA). Fibroblasts were cultured at 37° C. and 5% CO2 in humidified conditions. Depending on the cell growth, the medium was changed every 2-4 days and cells were passaged at 80% of confluence.
The human primary fibroblasts (6000 cells/well) and Hl60 cells (20.000 cells/well) were seeded into 96-well plates (Corning Life Sciences) in media. Fibroblasts were cultured overnight before treatment. […] Resazurin reagent was prepared and used as described in Example 1.
as §3

A375 (human melanoma) = experiment: viability assay (Table 2); type: cell-based; settings: A-375
Procedure: as §2
(§4) GBM2 (human glioblastoma), HeLa (human cervical carcinoma), MIA PaCa-2 (human pancreas carcinoma) and U87MG (human glioblastoma) cells were maintained in Dulbecco's Modified Eagle Medium (DMEM) 10% fetal calf serum (FCS, Gibco). A375 (human melanoma), A549 (human lung adenocarcinoma) and HEP3B (human hepatoma) cells were maintained in Dulbecco's Modified Eagle Medium/Nutrient Mixture F-12 (DMEM/F12) 10% FCS.
(§5) Media were supplemented with 2 mM GlutaMAX, and 100 U/mL penicillin, 100 μg/mL streptomycin (Life Technologies, Carlsbad, Calif., USA). Cell cultures were maintained at 37° C. in a humidified incubator in an atmosphere of 5% CO2 (Sanyo, Japan).
(§6) Viability assays were performed as described in Example 102.

[5] = test system: GBM2 (human glioblastoma); experiment: viability assay (Table 2); type: cell-based
Procedure: as §2, §4, §5, §6

HT168 (human melanoma) = experiment: viability assay (Table 2); type: cell-based
Procedure: as §2
HT168 (human melanoma), HT199 (human melanoma), HT29 (human colorectal adenocarcinoma), MOLT4 (human leukemia) and U937 (human lymphoma) cells were maintained in Roswell Park Memorial Institute 1640 medium (RPMI-1640) 10% FCS. SKOV-3 cells were maintained in Dulbecco's Modified Eagle Medium/McCoy's medium (DMEM/McCoy) 10% FCS.
as §5, §6

| SMILES | IC50 [1] [µM] | IC50 [2] [µM] | IC50 [3] [µM] | IC50 (HL-60 cells) [µM] | decrease in viability of human primary fibroblasts [4] | IC50 (A375 (human melanoma)) [µM] | IC50 [5] [µM] | IC50 (HT168 (human melanoma)) [µM] | melting point [°C] |
| --- | --- | --- | --- | --- | --- | --- | --- | --- | --- |
| CC(C)(C)CC(C)(C)Nc1c(C(C)(C)C)[nH]c2c(C(N)=O)cnn12 [Example 22, 2-(Tert-butyl)-3-((2,4,4-trimethylpentan-2-yl)amino)-1H-imidazo[1,2-b]pyrazole-7-carbox-amide] | 1.49 | 1.24 | 1.88 | 0.94 | Significant decrease in viability was not apparent | 2 | 5 | 3 | 155 to 156 |
| CSc1ccc(NC(=O)c2cnn3c(NC(C)(C)CC(C)(C)C)c(C(C)(C)C)[nH]c23)cc1 [Example 56, 2-(Tert-butyl)-N-(4-(methylthio)phenyl)-3-((2,4,4-trimethylpentan-2-yl)amino)-1H-imidazo[1,2-b]pyrazole-7-carboxamide] | 21.9 | 3.93 | > 50 | – | – | – | – | – | 169 to 170 |
| CC(C)c1[nH]c2c(C(N)=O)cnn2c1NC(C)(C)CC(C)(C)C [Example 25, 2-Isopropyl-3-((2,4,4-trimethylpentan-2-yl)amino)-1H-imidazo[1,2-b]pyrazole-7-carbox-amide] | 10.6 | 7.79 | 3.63 | – | – | – | – | – | 132 to 134 |
| COc1ccc(Nc2c(C(C)(C)C)[nH]c3c(C(N)=O)cnn23)cc1 [Example 20, 2-(Tert-butyl)-3-((4-methoxyphenyl)amino)-1H-imidazo[1,2-b]pyrazole-7-carboxamide] | > 50 | 8.8 | > 50 | – | – | – | – | – | 260 to 262 |
| COC(=O)CNc1c(-c2ccc(F)cc2)[nH]c2c(C(N)=O)cnn12 [Example 11, Methyl 2-((7-carbamoyl-2-(4-fluorophenyl)-1H-imidazo[1,2-b]pyrazol-3-yl)amino)acetate] | > 50 | 15.9 | > 50 | – | – | – | – | – | 229 to 230 |
| CC(C)(C)CC(C)(C)Nc1c(C(C)(C)C)[nH]c2c(C(=O)NC3CC3)cnn12 [Example 31, 2-(Tert-butyl)-N-cyclopropyl-3-((2,4,4-trimethylpentan-2-yl)amino)-1H-imidazo[1,2-b]pyrazole-7-carboxamide] | 1.69 | 1.61 | 4.01 | – | – | – | – | – | 161 |
| CC(C)(C)CC(C)(C)Nc1c(-c2ccc(C(F)(F)F)cc2)[nH]c2c(C(N)=O)cnn12 [Example 12, 2-(4-(Trifluoromethyl)phenyl)-3-((2,4,4-trimethylpentan-2-yl)amino)-1H-imidazo[1,2-b]pyrazole-7-carboxamide] | 12.7 | 13.2 | 20.9 | – | – | – | – | – | 192 to 193 |
| CN(C)c1ccc(NC(=O)c2cnn3c(NC(C)(C)CC(C)(C)C)c(C(C)(C)C)[nH]c23)cc1 [Example 57, 2-(Tert-butyl)-N-(4-(dimethylamino)phenyl)-3-((2,4,4-trimethylpentan-2-yl)amino)-1H-imidazo[1,2-b]pyrazole-7-carboxamide] | 10 | 0.297 | 11.8 | – | – | – | – | – | 176 to 177 |
| CC(C)(C)CC(C)(C)Nc1c(C(C)(C)C)[nH]c2c(C(=O)Nc3ccc(Br)cc3)cnn12 [Example 52, N-(4-Bromophenyl)-2-(tert-butyl)-3-((2,4,4-trimethylpentan-2-yl)amino)-1H-imidazo[1,2-b]pyrazole-7-carboxamide] | > 50 | 19.7 | > 50 | – | – | – | – | – | 153 to 154 |
| CC(C)(C)CC(C)(C)Nc1c(C2CCCCC2)[nH]c2c(C(N)=O)cnn12 [Example 16, 2-Cyclohexyl-3-((2,4,4-trimethylpentan-2-yl)amino)-1H-imidazo[1,2-b]pyrazole-7-carbox-amide] | 11.1 | 9.35 | 12.3 | – | – | – | – | – | 190 to 192 |
| CC(C)(C)CC(C)(C)Nc1c(C(C)(C)C)[nH]c2c(C(=O)Nc3ccc(F)cc3)cnn12 [Example 50, 2-(Tert-butyl)-N-(4-fluorophenyl)-3-((2,4,4-trimethylpentan-2-yl)amino)-1H-imidazo[1,2-b]pyrazole-7-carboxamide] | 2.35 | 0.183 | 7.43 | – | – | – | – | – | 188 |
| CC(C)(C)CC(C)(C)Nc1c(C(C)(C)C)[nH]c2c(C(=O)Nc3ccon3)cnn12 [Example 39, 2-(Tert-butyl)-N-(isoxazol-3-yl)-3-((2,4,4-trimethylpentan-2-yl)amino)-1H-imidazo[1,2-b]pyrazole-7-carboxamide] | 1.7 | 0.935 | 2.85 | – | – | – | – | – | 185 to 186 |
